Experimental data taken from PMC8876231, “Analogues of Natural Chalcones as Efficient Inhibitors of AKR1C3” (Metabolites, 2022).

What was measured:
HSD17B1 = biological target: T1, HSD17B1 (Homo sapiens, UniProt P14061); test: HSD17B1 inhibition assay (estrone to oestradiol); assay type: biochemical; conditions: 10 µM compound; mean ± SD
T1 construct: GST (own knowledge: pGEX vectors encode N-terminal GST); made in house; host or cells: E. coli BL21 DE3 Codon Plus RP
T1 sequence (P14061 1-328): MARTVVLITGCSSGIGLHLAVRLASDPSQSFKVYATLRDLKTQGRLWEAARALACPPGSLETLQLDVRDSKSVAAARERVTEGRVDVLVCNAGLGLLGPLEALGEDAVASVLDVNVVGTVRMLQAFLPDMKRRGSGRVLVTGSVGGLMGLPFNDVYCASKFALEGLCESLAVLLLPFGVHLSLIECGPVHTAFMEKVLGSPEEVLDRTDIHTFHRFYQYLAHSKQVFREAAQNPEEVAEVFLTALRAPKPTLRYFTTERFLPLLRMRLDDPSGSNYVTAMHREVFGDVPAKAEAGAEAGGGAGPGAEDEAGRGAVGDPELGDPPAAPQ
Source text: (§1) For enzymatic assays and inhibitor testing, all enzymes were cloned into bacterial or mammalian expression vectors. AKR1C3 and the human hydroxysteroid dehydrogenases HSD17B1, HSD17B2, HSD17B4 (SDR domain), HSD17B7, and HSD17B10 were cloned into a pGEX vector as described in [71, 72]. The coding sequences for AKR1C1, AKR1C2, and AKR1C4 were cloned by Gateway technology into the pcDNA3-N-MycDest vector according to the manufacturer’s instructions (Life Technologies, Carlsbad, CA, USA). The p11 plasmid coding for HSD17B14 (S205 variant) was a gift from Udo Opperman SGC Oxford, UK. For assays with HSD17B3, HEK293 cells stably expressing HSD17B3 were used. Enzymes were expressed in E. coli BL21 DE3 or E. coli BL21 DE3 Codon Plus RP (Stratagene, San Diego, CA, USA) or in HEK293 cells as described in [71, 72, 73]. Bacterial and cell pellets were stored at −20 °C and −80 °C, respectively, until use.
(§2) Inhibition assays were carried out as described in [71, 74]. […] For a detailed assay setup, see Supplementary Table S6. The incubation at 37 °C was stopped with 0.21 M ascorbic acid in methanol:acetic acid 99:1 (v:v) after the time needed to convert approximately 30% of the substrate in a control assay with 1% DMSO, without inhibitor candidate. Substrates and products were extracted from the reaction mixture by solid-phase extraction using C18 cartridges (Phenomenex, Aschaffenburg, Germany) and separated by RP–HPLC in a Beckman–Coulter HPLC Gold system, using the Luna 5 µm C18(2), 125 × 4.0 mm column (Phenomenex). The mobile phases used were H2O:ACN (57:43 (v:v); for assays of estrone (E1) to oestradiol (E2), E2 to E1, and ∆4-androstene-3,17-dione to testosterone conversion), H2O:ACN (49:51 (v:v); for assays of progesterone to 20α-hydroxyprogesterone conversion), and H2O:MeOH (35:65 (v:v) for assays of dihydrotestosterone (DHT) to 3α-androstanediol conversion) at a flow rate of 1 mL/min. Radioactivity was detected by online scintillation counting by using a radioactivity monitor (LB506D, Berthold Technologies, Bad Wildbad, Germany). Conversion of substrates to products was determined by integration of the peak area of the substrate and product peaks in percent. For calculation of inhibition, the conversion of control assay (assay without inhibitor) was set to 0% inhibition. All assays were run in triplicates, and mean values ± SD are reported.
(§3) Table S6: Activity assay setup […]
(§4) E1: estrone; E2: 17β-estradiol, A: Δ4-androstene-3,17-dione; T: testosterone, P: progesterone, 20αOHP: 20α-hydroxyprogesterone, DHT: dihydrotestosterone, 3α-Adiol: 3α-androstanediol, NaPi: 100 mM Na-phosphate buffer; PI: C0mplete protease inhibitor (Roche);. E.coli - Expression in E.coli BL21 DE3 Codon Plus RP except E.coli BL21 DE3 […]
(§5) application to antiparasitic and natural product synthesis. Eur J Org Chem […]
(§6) Synthesis of Xanthohumol analogues and discovery of potent thioredoxin reductase inhibitor as potential anticancer agent. J Med Chem 2015, 58,

HSD17B7 = biological target: T2, HSD17B7 (Homo sapiens, UniProt P56937); test: HSD17B7 inhibition assay (estrone to oestradiol); assay type: biochemical; conditions: 10 µM compound; mean ± SD
T2 construct: GST (own knowledge: pGEX vectors encode N-terminal GST); made in house; host or cells: E. coli BL21 DE3 Codon Plus RP
T2 sequence (P56937 1-341): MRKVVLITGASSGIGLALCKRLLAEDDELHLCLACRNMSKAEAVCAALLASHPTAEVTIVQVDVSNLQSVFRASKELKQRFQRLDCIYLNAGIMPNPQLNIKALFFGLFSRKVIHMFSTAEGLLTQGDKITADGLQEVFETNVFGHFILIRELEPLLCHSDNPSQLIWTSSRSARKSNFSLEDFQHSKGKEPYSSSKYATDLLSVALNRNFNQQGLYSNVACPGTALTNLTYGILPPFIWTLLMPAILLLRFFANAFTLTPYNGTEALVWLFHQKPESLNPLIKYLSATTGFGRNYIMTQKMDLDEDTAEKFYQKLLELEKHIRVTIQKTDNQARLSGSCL
Source text: as §1, §2, §3, §4, §5, §6

HEK293T cells = test: Cell Titer Blue cell viability (cytotoxicity) assay; conditions: 72 h, 1 µM to 100 µM tested
Method: For the cultivation of HEK293T cells, Dulbecco’s modified Eagle medium (DMEM, Pan Biotech GmbH, Aidenbach, Germany) supplemented with 10% FCS (Pan Biotech GmbH), 100 U/mL penicillin, and 100 µg/mL streptomycin (Pan Biotech GmbH) was used. The cells were cultured at 37 °C and 5% CO2 in constant humidity. Before cell seeding, culture flasks and multiwell plates were coated with collagen G (0.001% in PBS, Merck, Darmstadt, Germany).
For studying the cytotoxicity of the different chalcones and the positive control compounds cisplatin and etoposide on HEK293T cells, the Cell Titer® Blue (CTB) Cell Viability Assay was used (Promega, Mannheim, Germany). A total of 10,000 cells in a 200 µL culture medium were seeded into each well of a 96-well plate. Then, 24 h after seeding, the cells were treated with 0, 1, 2.5, 5, 7.5, 10, 15, 25, 50, or 100 µM of the different compounds (3 wells per compound and concentration) and incubated for an additional 72 h. For measurement of cell viability, 20 µL of CTB reagent were added to each well, and after 5 h at 37 °C, the metabolic activity was quantified by recording the fluorescence signal (λEx 560 nm, λEm 590 nm) on a Spark plate reader (Tecan Trading GmbH, Männedorf, Switzerland). […] Statistical significances were calculated by one-way ANOVA (Dunnett’s multiple comparison test), * p < 0.05, ** p < 0.005, *** p < 0.0002, **** p < 0.0001.

Inhibition of HSD17B1 at 10 µM in % (HSD17B1) [%]	Inhibition of HSD17B7 at 10 µM in % (HSD17B7) [%]	inhibition at 10 µM (HSD17B1) [%]	inhibition at 10 µM (HSD17B7) [%]	SMILES	Compound concentration at which HEK293T viability was significantly decreased (HEK293T cells) [µM]
		53.3	9.9 ± 4.7	O=C(/C=C/c1ccc(Cl)cc1Cl)c1c(O)cc(O)cc1O [Compound 23, 2,4-dichloro-2′,4′,6′-trihydroxychalcone]	≥ 50
42.8 ± 9.1	6.8 ± 4.7			Cc1ccc(/C=C/C(=O)c2c(O)cc(O)cc2O)cc1 [Compound 21]	

Second part, the molecule before the results:

SMILES	Inhibition of HSD17B1 at 10 µM in % (HSD17B1) [%]	Inhibition of HSD17B7 at 10 µM in % (HSD17B7) [%]	inhibition at 10 µM (HSD17B1) [%]	inhibition at 10 µM (HSD17B7) [%]	Compound concentration at which HEK293T viability was significantly decreased (HEK293T cells) [µM]
COc1ccc(/C=C/C(=O)c2c(O)cc(O)cc2O)cc1 [Compound 19]	42.3 ± 5.3	4.6 ± 4.4			
COc1cc(O)cc(O)c1C(=O)/C=C/c1ccc(Cl)cc1Cl [Compound 25]		37.7 ± 11.4			7.5
Cc1cccc(/C=C/C(=O)c2c(O)cc(O)cc2O)c1 [Compound 20]	51.8 ± 5.1	3.8 ± 3.5			
COc1ccc(/C=C/C(=O)c2c(O)cc(O)cc2OC)cc1 [Compound 18]	46.5 ± 8.8	6.5 ± 6.7			
